What is called IC50 is the concentration at which inhibition is half-maximal. Read a high IC50 as a need for much substance. Usually EC50 stands for the midpoint of the concentration-response curve. A word on the viability: it is a per cent measure of how many cells are alive, often set against a control.

One data set addresses CypD (Homo sapiens, UniProt P30405). Description: CypD PPIase activity, chymotrypsin-coupled assay. To be noted: for inhibition of CypD PPIase activity by diastereoisomers: 10 μM (Fig. 2A); for IC50: Table 2, enzyme assay. Format: biochemical.
The test system of data set [1] is isolated mouse liver mitochondria. Description: Calcium retention capacity (CRC) assay in isolated liver mitochondria. The format is biochemical. Particulars: for mitochondrial CRC vs maximum effect of CsA: 5 μM concentration and above (Fig. 2E); for mitochondrial CRC vs CsA and ALV: 0.5 and 1 μM (Fig. 2E); for maximal mitochondrial CRC, diastereoisomer vs racemic mixture: Fig. 2E; for mitochondrial CRC vs control: diastereoisomers at 100 μM (Fig. 2C); for EC50: isolated mouse liver mitochondria.

For data set [2] the test system is unchanged. Briefly: Ca2+-induced mitochondrial swelling assay. Format: biochemical. Particulars: energised isolated mouse liver mitochondria.
Data set [3] concerns AML-12 cells. Description: Propidium iodide staining, hypoxia/reoxygenation. To be noted: 1 μM; 4 h hypoxia, 1 h reoxygenation. The format is cell-based, mouse. The protocol: To assess whether the new SMCypIs reduced mPTP opening-induced cell death, propidium iodide fluorescence was measured in cells that had been co-loaded with calcein-AM. As expected, the loss of calcein fluorescence in cells subjected to hypoxia/reoxygenation was associated with enhanced propidium iodide fluorescence (Fig. 3A and 3C).
Calcium retention capacity (CRC) assay. Isolated liver mitochondria (1 mg/mL) energized with 5 mM glutamate/malate were incubated in a buffer allowing respiration of mitochondria (100 mM KCl, 50 mM sucrose, 10 mM HEPES, 5 mM KH2PO4, pH 7.4 at 30°C) supplemented with 1 µM calcium green 5N fluorescent probe. Mitochondria were pulsed with sequential additions of CaCl2 (20 µM) until mPTP opening along with rapid calcium release happened. The calcium concentration in the extra-mitochondrial medium was monitored with a Jasco FP-6300 spectrofluorimeter (Jasco, Bouguenais, France) at 506 nm excitation and 532 nm emission wavelengths.
Mitochondrial swelling assay. Mitochondrial swelling was assessed by measuring changes in absorbance at 540 nm using a Jasco V-530 spectrophotometer (Bouguenais, France) equipped with magnetic stirring and thermostatic control (30°C). […]
Monitoring of mPTP opening. mPTP opening was monitored in AML-12 cells using the CoCl2-calcein AM fluorescence-quenching assay. […] Calcein fluorescence was measured using a spectrofluorimeter at excitation and emission wavelengths of 485 nm and 535 nm, respectively. Images were acquired using a standard inverted fluorescence microscope (Zeiss Axio, […]
Propidium iodide staining. […] Fluorescence was measured using an Infinite 200 Pro fluorescent plate reader (Tecan, Mannedorf, Switzerland) at excitation and emission wavelengths of 533 nm and 617 nm, respectively. Images were acquired using a standard inverted fluorescence microscope (Zeiss Axio, Oberkochen, Germany). […]
Cell viability assays. Lactate dehydrogenase (LDH) release in culture medium was assessed using the commercially non-radioactive CytoTox-96 kit (Promega, Madison, Wisconsin) following the manufacturer’s instructions. […]

The subject of data set [4] is AML-12 cells. Description: Cell viability by MTT assay, hypoxia/reoxygenation. Format: cell-based, mouse. Particulars: 4 h hypoxia, 2 h reoxygenation; for cell viability (MTT): applied during hypoxia and reoxygenation. As to the method: As expected, cells subjected to hypoxia/reoxygenation were characterised by greater LDH release and reduced cell viability as compared to untreated controls (Fig. 4A and 4B). […]
Hypoxia/reoxygenation (H/R) in vitro model. […]
Collection (ATCC) and maintained in William’S E culture medium at 37°C with 5% CO2.When indicated, cells were incubated in phosphate buffered saline at 37°C in a hypoxic chamber filled with 94% N2, 1% O2, 5% CO2 for 4 h to mimic ischemic conditions. Then, cells were transferred to a CO2 incubator at 37°C in regular DMEM/F12 culture medium for 1 or 2 h under normoxic conditions (74% N2, 21% O2, 5% CO2). SMCypIs or vehicle (DMSO) were added during the hypoxia period, during the reoxygenation period, or during both. CsA and ALV were used as positive controls for hepatic protection against H/R injury. […]
Cell viability assays. […]
dimethylthiazol-2-yl)-2,5-diphenyltetrazolium bromide (MTT) assay, cells were incubated with a solution of MTT (0.5 mg/mL) for 2 h at 37°C. The medium was then removed and 50 µL DMSO was added to each well. Optical density of purple formazan product was measured at 550 nm. Cell viability was expressed as a percentage of the untreated control.

CypD, sequence (P30405 30-207): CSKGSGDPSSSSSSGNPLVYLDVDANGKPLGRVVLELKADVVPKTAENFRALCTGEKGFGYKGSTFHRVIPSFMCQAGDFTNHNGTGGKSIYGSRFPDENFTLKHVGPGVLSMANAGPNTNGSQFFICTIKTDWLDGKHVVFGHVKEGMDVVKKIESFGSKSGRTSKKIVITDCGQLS

On to `COc1ccc(Br)cc1[C@H](NC(=O)NCc1ccc2c(c1)CCCN2)C(=O)N1CCC[C@@H]1c1cccc2ccsc12` [Compound C105SR, 1-((S)-2-((R)-2-(benzo[b]thiophen-7-yl)pyrrolidin-1-yl)-1-(5-bromo-2-methoxyphenyl)-2-oxoethyl)-3-((1,2,3,4-tetrahydroquinolin-6-yl)methyl)urea], for which, on CypD, the “inhibition of CypD PPIase activity by diastereoisomers” value was “inhibited CypD PPIase activity” and the IC50 came to 5 ± 1 nM. In data set [1], the “mitochondrial CRC vs maximum effect of CsA” value is recorded as “stronger effect than the maximum effect achieved by CsA”; the “mitochondrial CRC vs CsA and ALV” value was “comparable to those of CsA and ALV”; the “maximal mitochondrial CRC, diastereoisomer vs racemic mixture” value is reported as 595 ± 38 nmol Ca2+/mg of mitochondrial; the “mitochondrial CRC vs control” value is listed as “greater than control mitochondrial CRC”. Besides, the EC50 in data set [1] came to 50 ± 20 nM. Also, half-maximal inhibition in data set [2] (IC50) required 9 ± 1 nM. Also, the propidium iodide fluorescence entry in the data set on AML-12 cells [3] is on record as “low propidium iodide fluorescence”. Further, the viability at 0.5 µM in the data set on AML-12 cells [4] (Mus musculus, AML12, 0.5 μM, read-out: increase in cell viability) was roughly 75%. Further, in the data set with AML-12 cells [4], the “cell viability (MTT)” value is “increased cell viability”.

Consider `COc1ccc(Br)cc1[C@H](NC(=O)NCc1ccc(N)cc1)C(=O)N1CCC[C@@H]1c1cccc2ccsc12` [Compound C110SR, 1-(4-aminobenzyl)-3-((S)-2-((R)-2-(benzo[b]thiophen-7-yl)pyrrolidin-1-yl)-1-(5-bromo-2-methoxyphenyl)-2-oxoethyl)urea], for which, at CypD, the “inhibition of CypD PPIase activity by diastereoisomers” value is “inhibited CypD PPIase activity” and the IC50 is 8 ± 2 nM. Also, in data set [1], the “mitochondrial CRC vs maximum effect of CsA” value is listed as “stronger effect than the maximum effect achieved by CsA”; the “mitochondrial CRC vs CsA and ALV” value is “comparable to those of CsA and ALV”; the “maximal mitochondrial CRC, diastereoisomer vs racemic mixture” value is recorded as 670 ± 52 nmol Ca2+/mg of mitochondrial; the “mitochondrial CRC vs control” value was “greater than control mitochondrial CRC”. The EC50 in data set [1] is 140 ± 20 nM. Besides, the midpoint of inhibition in data set [2], the IC50, lay at 40 ± 5 nM. For the same compound, the propidium iodide fluorescence result in the data set with AML-12 cells [3] is recorded as “low propidium iodide fluorescence”. For the same compound, the “increase in cell viability” value in the data set on AML-12 cells [4] (0.5 μM) was “not effective”. In the data set on AML-12 cells [4], the “cell viability (MTT)” value was “increased cell viability”.

Source of the values: publication PMC10582583, “The novel cyclophilin inhibitor C105SR reduces hepatic ischaemia–reperfusion injury via mitoprotection” (JHEP Reports, 2023).
